# Assay results taken from patent publication US12594267B2, “Capsid inhibitors for the treatment of HIV” (Gilead Sciences, Inc., priority 2018, dated 2026).
# Legend:
# [1] = Plasma PK after single oral administration in solution, rhesus monkey; format: in vivo
# Experimental: An oral formulation containing a compound of Formula (Ia) in […], 20% propylene glycol, 45 PEG 300, and 30% 0.01 N HCl was prepared. The formulation was orally administered to male rat, dog, cynomolgus monkey, and rhesus monkey according to the doses shown in Table 8 below.
# [2] = PK after oral administration in liquid-filled capsules in dogs; format: in vivo, beagle dogs; conditions: for bioavailability: oral, calculated based on AUC0-72h vs average IV AUC0-72h
# Experimental: A single dose of the compound of Formula (Ia), formulated as liquid-filled capsules (LFC) containing either 100% glycerol monocaprylocaprate or 20% caprylocaproyl polyoxyl-8 glycerides and 80% glycerol monocaprylocaprate was administered orally at 7.5 mg fixed dose to 6 male beagle dogs (Table 9). At 100 mg/mL of the compound of Formula (Ia), the AUCinf increased with increasing glycerol monocaprylocaprate content. For the formulation with 100% glycerol monocaprylocaprate, the AUCinf at 50 mg/mL was higher than that at 100 mg/mL.
# A single dose of the compound of Formula (Ia), formulated as liquid-filled capsules (LFC) containing 100% glycerol monocaprylocaprate, was administered orally at 7.5 mg fixed dose to 6 beagle dogs (Table S) and the pharmacokinetic (PK) profile was determined. […] Plasma concentrations of the compound of Formula (Ia) were maintained above the target trough concentration of 20 nM for at least 72 hours (3 days).
# [3] = male, plasma, single oral 4.0 mg/kg, solution in 5% ethanol/20% propylene glycol/45% PEG 300/30% 0.01 N HCl, mean ± SD, n=3
# [4] = dog, plasma, fasted, pentagastrin-pretreated male beagle dogs, oral LFC 7.5 mg fixed dose, 20% caprylocaproyl polyoxyl-8 glycerides and 80% glycerol monocaprylocaprate, 100 mg/mL, mean ± SD, n=6
# [5] = male, beagle, dog, plasma, po, 7.5 mg, fasted, pentagastrin-pretreated male beagle dogs, oral LFC 7.5 mg fixed dose, 100% glycerol monocaprylocaprate, 50 mg/mL, mean ± SD, n=6
# [6] = male, beagle, dog, plasma, po, 7.5 mg, fasted, pentagastrin-pretreated male beagle dogs, oral LFC 7.5 mg fixed dose, 100% glycerol monocaprylocaprate, 100 mg/mL, mean ± SD, n=6
structure (smiles),measurement,setting,value
"CC(C)(C#Cc1ccc(-c2ccc(Cl)c3c(NS(C)(=O)=O)nn(CC(F)(F)F)c23)c([C@H](Cc2cc(F)cc(F)c2)NC(=O)Cn2nc(C(F)(F)F)c3c2C(F)(F)[C@@H]2C[C@H]32)n1)S(C)(=O)=O [Formula (Ia), N—((S)-1-(3-(4-chloro-3-(methylsulfonamido)-1-(2,2,2-trifluoroethyl)-1H-indazol-7-yl)-6-(3-methyl-3-(methylsulfonyl)but-1-yn-1-yl)pyridin-2-yl)-2-(3,5-difluorophenyl)ethyl)-2-((3bS,4aR)-5,5-difluoro-3-(trifluoromethyl)-3b,4,4a,5-tetrahydro-1H-cyclopropa[3,4]cyclopenta[1,2-c]pyrazol-1-yl)acetamide]",bioavailability,"[1]; male, plasma, single oral 4.0 mg/kg, same solution, calculated based on AUC0-72h, mean ± SD, n=3, read-out: F (oral bioavailability)",4.4 ± 1.7%
same,AUC(0-inf),[1]; [3],1130 ± 446 µM·h
same,Cmax,[1]; [3],29400 ± 7500 nM
same,Tmax,[1]; [3],18.7 ± 9.2 h
same,AUC(0-t),"[1]; male, plasma, single oral 4.0 mg/kg, solution in 5% ethanol/20% propylene glycol/45% PEG 300/30% 0.01 N HCl, mean ± SD, n=3, read-out: AUC0-72h",972 ± 367 µM·h
same,"F % (bioavailability), in words",[1]; oral solution,low
same,Time plasma concentrations maintained above the target trough concentration of 20 nM,"[2]; beagle dogs, oral liquid-filled capsules, 100% glycerol monocaprylocaprate, 7.5 mg fixed dose",at least 72 hours
same,Tmax,"[2]; beagle, dog, plasma, po, 7.5 mg, beagle dogs, oral liquid-filled capsules, 100% glycerol monocaprylocaprate, 7.5 mg fixed dose, 50 mg/mL (Table S), mean ± SD, n=6",11 ± 10.1 h
same,AUC(0-t),"[2]; beagle, dog, plasma, po, 7.5 mg, beagle dogs, oral liquid-filled capsules, 100% glycerol monocaprylocaprate, 7.5 mg fixed dose, 50 mg/mL (Table S), mean ± SD, n=6, read-out: AUC0-72h",5.07 ± 4.65 µM·h
same,AUC(0-t),"[2]; beagle, dog, plasma, po, 7.5 mg, beagle dogs, oral liquid-filled capsules, 100% glycerol monocaprylocaprate, 7.5 mg fixed dose, 50 mg/mL (Table S), mean ± SD, n=6, read-out: AUC0-14d",108 ± 16 µM·h
same,concentration at 72 h,"[2]; dog, plasma, beagle dogs, oral liquid-filled capsules, 100% glycerol monocaprylocaprate, 7.5 mg fixed dose, 50 mg/mL (Table S), mean ± SD, n=6, read-out: C72h",20.1 ± 24.4 nM
same,AUC(0-inf),[2]; [4],1.3 ± 0.634 µM·h
same,Cmax,[2]; [4],53.2 ± 16.7 nM
same,Tmax,[2]; [4],7.7 ± 8 h
same,AUC(0-t),"[2]; dog, plasma, fasted, pentagastrin-pretreated male beagle dogs, oral LFC 7.5 mg fixed dose, 20% caprylocaproyl polyoxyl-8 glycerides and 80% glycerol monocaprylocaprate, 100 mg/mL, mean ± SD, n=6, read-out: AUC0-72h",1.18 ± 0.575 µM·h
same,bioavailability,"[2]; male, beagle, dog, plasma, 7.5 mg, as above (20%/80% LFC, 100 mg/mL), mean ± SD, n=6",11 ± 4%
same,bioavailability,"[2]; male, beagle, dog, plasma, 7.5 mg, as above (100% glycerol monocaprylocaprate LFC, 50 mg/mL), mean ± SD, n=6",22 ± 10%
same,bioavailability,"[2]; male, beagle, dog, plasma, 7.5 mg, as above (100% glycerol monocaprylocaprate LFC, 100 mg/mL), mean ± SD, n=6",16 ± 9%
same,AUC(0-inf),[2]; [5],2.33 ± 1.35 µM·h
same,Cmax,[2]; [5],82.7 ± 32.1 nM
same,Tmax,[2]; [5],4 h
same,AUC(0-t),"[2]; male, beagle, dog, plasma, po, 7.5 mg, fasted, pentagastrin-pretreated male beagle dogs, oral LFC 7.5 mg fixed dose, 100% glycerol monocaprylocaprate, 50 mg/mL, mean ± SD, n=6, read-out: AUC0-72h",2.18 ± 1.24 µM·h
same,AUC(0-inf),[2]; [6],1.87 ± 1.19 µM·h
same,Cmax,[2]; [6],71.2 ± 25.8 nM
same,Tmax,[2]; [6],5 ± 1.1 h
same,AUC(0-t),"[2]; male, beagle, dog, plasma, po, 7.5 mg, fasted, pentagastrin-pretreated male beagle dogs, oral LFC 7.5 mg fixed dose, 100% glycerol monocaprylocaprate, 100 mg/mL, mean ± SD, n=6, read-out: AUC0-72h",1.67 ± 1.04 µM·h
